Consider 26 compounds from patent US9802927B2, “Oxadiazine compounds and methods of use thereof” (Denali Therapeutics, Inc., priority 2015, dated 2017).

The test system of the first assay is Aβ42. Put plainly: In vitro cell screening assay in H4 cells expressing human APP751: Aβ42 by sandwich ELISA. The assay is classed as cell-based. The following applies: Homo sapiens, compounds 0.003-10 μM, incubated overnight (16-18 h), sandwich ELISA of supernatant. A digest of the protocol:
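H4 neuroglioma cells stably expressing wild-type human APP751, switched to Pro293 medium and treated with compounds (0.003-10 μM, 0.33% DMSO) for 16-18 h at 37 °C. Supernatant Aβ42 quantified by sandwich ELISA (C-terminal capture, 4G8-HRP detection, A450); EC50 by sigmoidal fit normalized to DMSO and DAPT controls.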
On the technique in general: In an ELISA, binding on a coated surface is turned into a signal by an enzyme label.
Usually EC50 stands for the concentration at which the effect is half-maximal. The low end stands for higher potency in that assay, the high end for lower potency in that assay. `COc1nc(C2=NOCC(c3ccc(S(C)(=O)=O)cc3)N2)ccc1-n1cnc(C)c1` (single isomer, unassigned; (-)) [Example 217A, (−)-3-(6-methoxy-5-(4-methyl-1H-imidazol-1-yl)pyridin-2-yl)-5-(4-(methylsulfonyl)phenyl)-5,6-dihydro-4H-1,2,4-oxadiazine] registered an EC50 of over 3000 nM.

The assay is the same for the next values; noted with them: compounds 0.003-10 μM, incubated overnight (16-18 h), sandwich ELISA of supernatant.
`COc1nc(C2=NOCC(c3ccc4sc(C)nc4c3)N2)ccc1-n1cnc(C)c1` (single isomer, unassigned; (-)) [Example 215A, (−)-3-(6-methoxy-5-(4-methyl-1H-imidazol-1-yl)pyridin-2-yl)-5-(2-methylbenzo[d]thiazol-5-yl)-5,6-dihydro-4H-1,2,4-oxadiazine] came in with an EC50 of 2210 nM.

`COc1nc(C2=NOCC(c3cn(C)c4cc(F)c(Cl)cc34)N2)ccc1-n1cnc(C)c1` (single isomer, unassigned; (-)) [Example 216A, (−)-5-(5-chloro-6-fluoro-1-methyl-1H-indol-3-yl)-3-(6-methoxy-5-(4-methyl-1H-imidazol-1-yl)pyridin-2-yl)-5,6-dihydro-4H-1,2,4-oxadiazine]: the EC50 turned out to be 89.5 nM.

The compound `COc1nc(C2=NOCC(c3ccc(C)c(Cl)c3)N2)ccc1-n1cnc(C)c1` (single isomer, unassigned; (-)) [Example 218A, (−)-5-(3-chloro-4-methylphenyl)-3-(6-methoxy-5-(4-methyl-1H-imidazol-1-yl)pyridin-2-yl)-5,6-dihydro-4H-1,2,4-oxadiazine] yielded an EC50 of 1010 nM.

With `COc1nc(C2=NOCC(c3cn(C(C)C)c4cc(F)ccc34)N2)ccc1-n1cnc(C)c1` (single isomer, unassigned; (-)) [Example 219B, (−)-5-(6-fluoro-1-isopropyl-1H-indol-3-yl)-3-(6-methoxy-5-(4-methyl-1H-imidazol-1-yl)pyridin-2-yl)-5,6-dihydro-4H-1,2,4-oxadiazine], it took 194 nM to reach a half-maximal effect (EC50).

As for `COc1nc(C2=NOCC(c3cn(C)c4ccc(F)c(F)c34)N2)ccc1-n1cnc(C)c1` (single isomer, unassigned; (-)) [Example 220A, (−)-5-(4,5-difluoro-1-methyl-1H-indol-3-yl)-3-(6-methoxy-5-(4-methyl-1H-imidazol-1-yl)pyridin-2-yl)-5,6-dihydro-4H-1,2,4-oxadiazine], it took 102 nM to reach a half-maximal effect (EC50).

`COc1nc(C2=NOCC(c3cn(C)c4ccc(C5CC5)cc34)N2)ccc1-n1cnc(C)c1` (single isomer, unassigned; (-)) [Example 221A, (−)-5-(5-cyclopropyl-1-methyl-1H-indol-3-yl)-3-(6-methoxy-5-(4-methyl-1H-imidazol-1-yl)pyridin-2-yl)-5,6-dihydro-4H-1,2,4-oxadiazine]: the EC50 was determined as 59.9 nM.

Compound `COc1nc(C2=NOCC(c3cn(C4CC4)c4cccc(F)c34)N2)ccc1-n1cnc(C)c1` (single isomer, unassigned; (-)) [Example 222B, (−)-5-(1-cyclopropyl-4-fluoro-1H-indol-3-yl)-3-(6-methoxy-5-(4-methyl-1H-imidazol-1-yl)pyridin-2-yl)-5,6-dihydro-4H-1,2,4-oxadiazine] had an EC50 of 68.6 nM.

Consider `COc1nc(C2=NOCC(c3cn(C)c4cc(F)c(F)cc34)N2)ccc1-n1cnc(C)c1` (single isomer, unassigned; (-)) [Example 223A, (−)-5-(5,6-difluoro-1-methyl-1H-indol-3-yl)-3-(6-methoxy-5-(4-methyl-1H-imidazol-1-yl)pyridin-2-yl)-5,6-dihydro-4H-1,2,4-oxadiazine], for which it took 130 nM to reach a half-maximal effect (EC50).

With `COc1nc(C2=NOCC(c3ccc4ncccc4c3)N2)ccc1-n1cnc(C)c1` (single isomer, unassigned; (-)) [Example 224A, (−)-3-(6-methoxy-5-(4-methyl-1H-imidazol-1-yl)pyridin-2-yl)-5-(quinolin-6-yl)-5,6-dihydro-4H-1,2,4-oxadiazine], the EC50 was over 3000 nM.

For the compound `COc1nc(C2=NOCC(c3ccc4c(c3)OC(F)(F)O4)N2)ccc1-n1cnc(C)c1` (single isomer, unassigned; (-)) [Example 225A], the EC50 is over 3000 nM.

The compound `COc1nc(C2=NOCC(c3cn(C)c4cc(F)cc(F)c34)N2)ccc1-n1cnc(C)c1` (single isomer, unassigned; (-)) [Example 226B, (−)-5-(4,6-difluoro-1-methyl-1H-indol-3-yl)-3-(6-methoxy-5-(4-methyl-1H-imidazol-1-yl)pyridin-2-yl)-5,6-dihydro-4H-1,2,4-oxadiazine] displayed an EC50 of 71.4 nM.

Regarding `COc1nc(C2=NOCC(c3ccc(C)cc3)N2)ccc1-n1cnc(C)c1` (single isomer, unassigned; (-)) [Example 227A, (−)-3-(6-methoxy-5-(4-methyl-1H-imidazol-1-yl)pyridin-2-yl)-5-(p-tolyl)-5,6-dihydro-4H-1,2,4-oxadiazine], the EC50 came to 958 nM.

The compound `COc1nc(C2=NOCC(c3cn(C4CC4)c4cc(F)ccc34)N2)ccc1-n1cnc(C)c1` (single isomer, unassigned; (-)) [Example 228A, (−)-5-(1-cyclopropyl-6-fluoro-1H-indol-3-yl)-3-(6-methoxy-5-(4-methyl-1H-imidazol-1-yl)pyridin-2-yl)-5,6-dihydro-4H-1,2,4-oxadiazine] came in with an EC50 of 262 nM.

Compound `COc1nc(C2=NOCC(c3cn(C)c4cccc(Cl)c34)N2)ccc1-n1cnc(C)c1` (single isomer, unassigned; (-)) [Example 229B, (−)-5-(4-chloro-1-methyl-1H-indol-3-yl)-3-(6-methoxy-5-(4-methyl-1H-imidazol-1-yl)pyridin-2-yl)-5,6-dihydro-4H-1,2,4-oxadiazine] registered an EC50 of 24.4 nM.

Take `COc1nc(C2=NOCC(c3cn(C)c4cccc(C(F)(F)F)c34)N2)ccc1-n1cnc(C)c1` (single isomer, unassigned; (-)) [Example 230B, (−)-3-(6-methoxy-5-(4-methyl-1H-imidazol-1-yl)pyridin-2-yl)-5-(1-methyl-4-(trifluoromethyl)-1H-indol-3-yl)-5,6-dihydro-4H-1,2,4-oxadiazine]: the concentration giving a half-maximal response (EC50) was found to be 25.2 nM.

`COc1nc(C2=NOCC(c3cn(C)c4c(F)cccc34)N2)ccc1-n1cnc(C)c1` (single isomer, unassigned; (-)) [Example 231A, (−)-5-(7-fluoro-1-methyl-1H-indol-3-yl)-3-(6-methoxy-5-(4-methyl-1H-imidazol-1-yl)pyridin-2-yl)-5,6-dihydro-4H-1,2,4-oxadiazine] yielded an EC50 of 229 nM.

In the case of `COc1nc(C2=NOCC(c3nn(C)c4ccc(Cl)cc34)N2)ccc1-n1cnc(C)c1` (single isomer, unassigned; (-)) [Example 232A, (−)-5-(5-chloro-1-methyl-1H-indazol-3-yl)-3-(6-methoxy-5-(4-methyl-1H-imidazol-1-yl)pyridin-2-yl)-5,6-dihydro-4H-1,2,4-oxadiazine], a half-maximal effect (EC50) was put at 278 nM.

For `COc1nc(C2=NOCC(c3cn(C)c4ccc(C(F)(F)F)cc34)N2)ccc1-n1cnc(C)c1` (single isomer, unassigned; (-)) [Example 233A, (−)-3-(6-methoxy-5-(4-methyl-1H-imidazol-1-yl)pyridin-2-yl)-5-(1-methyl-5-(trifluoromethyl)-1H-indol-3-yl)-5,6-dihydro-4H-1,2,4-oxadiazine], it took 94.5 nM to reach a half-maximal effect (EC50).

Compound `COc1nc(C2=NOCC(c3cc4cc(C5CC5)ccc4o3)N2)ccc1-n1cnc(C)c1` (single isomer, unassigned; (-)) [Example 234A, (−)-5-(5-cyclopropylbenzofuran-2-yl)-3-(6-methoxy-5-(4-methyl-1H-imidazol-1-yl)pyridin-2-yl)-5,6-dihydro-4H-1,2,4-oxadiazine] yielded an EC50 of 425 nM.

In turn, `COc1nc(C2=NOCC(c3ccc(C(C)(C)C)cc3)N2)ccc1-n1cnc(C)c1` (single isomer, unassigned; (-)) [Example 235A, (−)-5-(4-(tert-butyl)phenyl)-3-(6-methoxy-5-(4-methyl-1H-imidazol-1-yl)pyridin-2-yl)-5,6-dihydro-4H-1,2,4-oxadiazine] gave an EC50 of 763 nM.

Turning to `COc1nc(C2=NOCC(c3cc4ccc(C5CC5)cc4o3)N2)ccc1-n1cnc(C)c1` (single isomer, unassigned; (-)) [Example 236A, (−)-5-(6-cyclopropylbenzofuran-2-yl)-3-(6-methoxy-5-(4-methyl-1H-imidazol-1-yl)pyridin-2-yl)-5,6-dihydro-4H-1,2,4-oxadiazine], the EC50 was found to be 397 nM.

Consider `COc1nc(C2=NOCC(c3cn(C)c4ccc(Cl)c(F)c34)N2)ccc1-n1cnc(C)c1` (single isomer, unassigned; (-)) [Example 237B, (−)-5-(5-chloro-4-fluoro-1-methyl-1H-indol-3-yl)-3-(6-methoxy-5-(4-methyl-1H-imidazol-1-yl)pyridin-2-yl)-5,6-dihydro-4H-1,2,4-oxadiazine], for which the half-maximal effective concentration (EC50) stood at 47.1 nM.

Consider `COc1nc(C2=NOCC(c3ccc4nc(C)sc4c3)N2)ccc1-n1cnc(C)c1` (single isomer, unassigned; (-)) [Example 238A, (−)-3-(6-methoxy-5-(4-methyl-1H-imidazol-1-yl)pyridin-2-yl)-5-(2-methylbenzo[d]thiazol-6-yl)-5,6-dihydro-4H-1,2,4-oxadiazine], for which the half-maximal effective concentration (EC50) was over 3000 nM.

With `COc1nc(C2=NOCC(c3ccc(Cl)c(C4CC4)c3)N2)ccc1-n1cnc(C)c1` (single isomer, unassigned; (-)) [Example 239A, (−)-5-(4-chloro-3-cyclopropylphenyl)-3-(6-methoxy-5-(4-methyl-1H-imidazol-1-yl)pyridin-2-yl)-5,6-dihydro-4H-1,2,4-oxadiazine], the EC50 was found to be 920 nM.

Take `COc1nc(C2=NOCC(c3ccc4scnc4c3)N2)ccc1-n1cnc(C)c1` (single isomer, unassigned; (-)) [Example 240A, (−)-5-(benzo[d]thiazol-5-yl)-3-(6-methoxy-5-(4-methyl-1H-imidazol-1-yl)pyridin-2-yl)-5,6-dihydro-4H-1,2,4-oxadiazine]: the EC50 was over 3000 nM.
